Tested on: patients with mild to moderate hypertension
Test: Clinical study: triglycerides
Type: in vivo
Method: After six weeks the non-responders were titrated to a 100 mg oral dose administered once daily.

SMILES: CCCCc1nc(Cl)c(CO)n1Cc1ccc(-c2ccccc2-c2nnn[nH]2)cc1.[K] [Losartan, 2-n-butyl-4-chloro-1-[(2'-(tetrazol-5-yl)-1,1'-biphenyl-4-yl)-methyl]-1H-imidazole-5-methanol potassium salt]
- TRIGLYCERIDES, TREATMENT MEAN (LOS 50, week 12, N 107): 173.1 mg/dL
- TRIGLYCERIDES, CHANGE MEAN (LOS 50, week 12, N 107, change from baseline 170.4): 2.7 mg/dL
- TRIGLYCERIDES, TREATMENT MEAN (LOS 50/100, week 12, N 106): 187.8 mg/dL
- TRIGLYCERIDES, CHANGE MEAN (LOS 50/100, week 12, N 106, change from baseline 174.4): 13.4 mg/dL
